# Measurements published in PubChem BioAssay AID2060888 (Molecular Pharmacology Branch, DTP, NCI, 2025).
# “And” between values parts separate entries of the source, which are not always exact repeats. Equal values may be shown once.
# Test system: 695427-040-R-J1-PDC complex spheroid viability
# Assay: Anticancer human tumor 695427-040-R-J1-PDC patient-derived colon adenocarcinoma cell line growth inhibition [RAS]
# Settings: for viability, T/C: stronger effect = lower value
# From the text: RAS pathway inhibitors in Combinations in Complex Spheroids
# A high-throughput screen of multi-cell type tumor spheroids was designed to identify active combinations of RAS pathway inhibitors and targeted small molecules. Complex spheroids include a stromal component modeled by human endothelial cells (HUVEC) and fibroblasts modeled by human mesenchymal stem cells (MSCs). The concentration ranges selected for each drug and investigational agent were based upon clinically achievable concentrations if the clinical Cmax of the agent was known.
# Compounds. The drugs and investigational agents: abemaciclib (NSC768073), cobimetinib (NSC768068), divarasib (GDC6063, NSC841802), docetaxel (NSC628503), GDC-1971 (RLY-1971, NSC841576), gemcitabine (NSC613327), inavolisib (NSC800729), ipatasertib (NSC767898), KB-0742 (NSC834161), MRTX-1133 (NSC836407), osimertinib (NSC779217), RMC-4630 (NSC839698), RMC-6236 (NSC851965), RMC-6291 (NSC852671), Ro-3306 (NSC812927), sapanisertib (NSC764658), SN-38 (NSC673596), staurosporine (NSC755774), SY5609 (NSC837396), and tovorafenib (DAY101, NSC766906), were obtained from the National Cancer Institute (NCI) Developmental Therapeutics Program Chemical Repository. The FDA-approved anticancer drug set is available from the NCI Developmental Therapeutics Program. […] The stock solutions were prepared in dimethyl sulfoxide (DMSO, Sigma-Aldrich, St. Louis, MO, cat. D2650) at 800-fold the tested concentration and stored at -70 degrees C prior to their use. All drugs and investigational agents were tested over a range starting from a high concentration at or near the clinical Cmax and decreasing in half-log increments. If the clinical Cmax for an agent had not been determined, the highest concentration tested was 10 microM.
# Cell Culture. All cells were maintained in an incubator at 37 degrees C and 5% CO2 with 95% humidity. The PDC lines were cultured according to standard operating procedures established by the NCI PDMR. All PDCs were thawed and cultured in Matrigel-coated flasks prepared with a working solution of 1X Ham's F-12 nutrient mix, without supplementation (Invitrogen, Waltham, MA, cat. 11765054), 100 U/mL penicillin-streptomycin (Invitrogen, cat. 15140122), and 2.5% Matrigel (Corning Inc., Corning, NY, cat. 354248) for the first three passages. The 362531-283-R-J2-PDC and 782815-120-R-J1-PDC lines were cultured in 6C/Colon 1B media, which includes advanced DMEM/F-12 (Thermo Fisher Scientific, cat. 12634028), 10 mM HEPES (Thermo Fisher Scientific, cat. 15630080), 1X GlutaMAX supplement (Thermo Fisher Scientific, cat. 35050061), 0.1 mg/mL primocin (InvivoGen, San Diego, CA, cat. ant-pm-2), 10% defined fetal bovine serum, heat inactivated (HyClone Laboratories Inc., Logan, UT, cat. SH30070.03HI), 50% L-WRN conditioned media (ATCC, cat. CRL-3276), 1.25 mM N-Acetyl-L-cysteine (Sigma-Aldrich, cat. A9165), 10 mM nicotinamide (Sigma-Aldrich, cat. N0636), 1X B-27 supplement (Thermo Fisher Scientific, cat. 17504044), 1X N-2 supplement (Thermo Fisher Scientific, cat. 17502048), 50 ng/mL human EGF (Thermo Fisher Scientific, cat. PHG0311), and 10 microM Y-27632 dihydrochloride (Tocris Bioscience, cat. 1254). The K12877-001-R-J1-PDC line was cultured in 6I media, which includes all 6C/Colon 1B media plus 10 ng/mL human FGF-10 (PeproTech, cat. 100-26), 1 ng/mL human FGF-2 (PeproTech, cat. 100-18B), 1 µM prostaglandin E2 (Tocris Bioscience, cat. 2296), […] hydrocortisone (Sigma-Aldrich, cat. H4001), and […] bovine insulin (Sigma-Aldrich, cat. I6634). The K86415-001-R-J1-PDC line was cultured in 6D media, which includes all 6C/Colon 1B media components minus the L-WRN conditioned media. The 485176-168-R4-J1-PDC was cultured in PANC media, which includes all 6C/Colon 1B media plus 100 ng/mL human FGF-10 (PeproTech, cat. 100-26), 500 nM SB-431542 (Selleckchem, cat. S1067), and 10 nM gastrin (Tocris Bioscience, cat. 3006). […]
# [1] = curve of first compound, second compound 0.00316 µM
# [2] = curve of first compound, second compound 0.01 µM
# [3] = curve of first compound, second compound 0.0316 µM
# [4] = curve of first compound, second compound 0.1 µM
# [5] = curve of first compound, second compound 0.316 µM
# [6] = curve of first compound, second compound 1 µM
# [7] = second compound 0.00316 µM, first compound 0.0316 µM
# [8] = second compound 0.00316 µM, first compound 0.1 µM
# [9] = second compound 0.00316 µM, first compound 0.316 µM
# [10] = second compound 0.00316 µM, first compound 1 µM
# [11] = second compound 0.01 µM, first compound 0.0316 µM
# [12] = second compound 0.01 µM, first compound 0.1 µM
# [13] = second compound 0.01 µM, first compound 0.316 µM
# [14] = second compound 0.01 µM, first compound 1 µM
# [15] = second compound 0.0316 µM, first compound 0.0316 µM
# [16] = second compound 0.0316 µM, first compound 0.1 µM
# [17] = second compound 0.0316 µM, first compound 0.316 µM
# [18] = second compound 0.0316 µM, first compound 1 µM
# [19] = second compound 0.1 µM, first compound 0.0316 µM
# [20] = second compound 0.1 µM, first compound 0.1 µM
# [21] = second compound 0.1 µM, first compound 0.316 µM
# [22] = second compound 0.1 µM, first compound 1 µM
# [23] = second compound 0.316 µM, first compound 0.0316 µM
# [24] = second compound 0.316 µM, first compound 0.1 µM
# [25] = second compound 0.316 µM, first compound 0.316 µM
# [26] = second compound 0.316 µM, first compound 1 µM
# [27] = second compound 1 µM, first compound 0.0316 µM
# [28] = second compound 1 µM, first compound 0.1 µM
# [29] = second compound 1 µM, first compound 0.316 µM
# [30] = second compound 1 µM, first compound 1 µM
# 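Further: viability read after seven days of drug exposure.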
# 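Wherever viability, T/C is given: 100% = DMSO vehicle control viability.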
structure (smiles),measurement,setting,value
CCN1CCN(Cc2ccc(Nc3ncc(F)c(-c4cc(F)c5nc(C)n(C(C)C)c5c4)n3)nc2)CC1 + C=CC(=O)N1CCN(c2nc(OCC3CCCN3C)nc3c(F)c(-c4nc(N)cc(C)c4C(F)(F)F)c(Cl)cc23)C(C)C1,IC50,[1],> 1000 nM
same,IC50,[2],> 1000 nM
same,IC50,[3],> 1000 nM
same,IC50,[4],> 1000 nM
same,IC50,[5],> 1000 nM
same,IC50,[6],> 1000 nM
same,"viability, T/C","second compound 0.00316 µM, first compound 0.00316 µM",93%
same,"viability, T/C","second compound 0.00316 µM, first compound 0.01 µM",88.4%
same,"viability, T/C",[7],88.5%
same,"viability, T/C",[8],88.8%
same,"viability, T/C",[9],101%
same,"viability, T/C",[10],103%
same,"viability, T/C","second compound 0.01 µM, first compound 0.00316 µM",107%
same,"viability, T/C","second compound 0.01 µM, first compound 0.01 µM",92.2%
same,"viability, T/C",[11],94.1%
same,"viability, T/C",[12],92.4%
same,"viability, T/C",[13],101%
same,"viability, T/C",[14],108%
same,"viability, T/C","second compound 0.0316 µM, first compound 0.00316 µM",106%
same,"viability, T/C","second compound 0.0316 µM, first compound 0.01 µM",96.3%
same,"viability, T/C",[15],95.3%
same,"viability, T/C",[16],91.6%
same,"viability, T/C",[17],109%
same,"viability, T/C",[18],105%
same,"viability, T/C","second compound 0.1 µM, first compound 0.00316 µM",89%
same,"viability, T/C","second compound 0.1 µM, first compound 0.01 µM",102%
same,"viability, T/C",[19],90.3%
same,"viability, T/C",[20],92.1%
same,"viability, T/C",[21],107%
same,"viability, T/C",[22],110%
same,"viability, T/C","second compound 0.316 µM, first compound 0.00316 µM",95.5%
same,"viability, T/C","second compound 0.316 µM, first compound 0.01 µM",94.3%
same,"viability, T/C",[23],96.7%
same,"viability, T/C",[24],94.7%
same,"viability, T/C",[25],101%
same,"viability, T/C",[26],97%
same,"viability, T/C","second compound 1 µM, first compound 0.00316 µM",94.8%
same,"viability, T/C","second compound 1 µM, first compound 0.01 µM",85.6%
same,"viability, T/C",[27],93.7%
same,"viability, T/C",[28],96.6%
same,"viability, T/C",[29],99%
same,"viability, T/C",[30],94.8%
CC(=O)OC12COC1CC(O)C1(C)C(=O)C(O)C3=C(C)C(OC(=O)C(O)C(NC(=O)OC(C)(C)C)c4ccccc4)CC(O)(C(OC(=O)c4ccccc4)C21)C3(C)C (configuration not stated),"viability, T/C",compound 0.0316 µM,71.6% [middle of 4 runs]
same,"viability, T/C",compound 0.1 µM,68.3% [middle of 4 runs]
same,"viability, T/C",compound 0.316 µM,72.2% [middle of 4 runs]
same,"viability, T/C",compound 1 µM,76.2% [middle of 4 runs]
same,"viability, T/C",compound 10 µM,90.3% [middle of 4 runs]
same,IC50,curve of compound,> 10000 nM
CC1(O)CCCC1n1c(=O)c(C(F)F)cc2cnc(NC3CCN(S(C)(=O)=O)CC3)nc21 (configuration not stated) + C=CC(=O)N1CCN(c2nc(OCC3CCCN3C)nc3c(F)c(-c4nc(N)cc(C)c4C(F)(F)F)c(Cl)cc23)C(C)C1,IC50,[1],> 10000 nM
same,IC50,[2],> 10000 nM
same,IC50,[3],> 10000 nM
same,IC50,[4],> 10000 nM
same,IC50,[5],> 10000 nM
same,IC50,[6],8820 nM
same,"viability, T/C",[7],95.4%
same,"viability, T/C",[8],93.5%
same,"viability, T/C",[9],101%
same,"viability, T/C",[10],111%
same,"viability, T/C","second compound 0.00316 µM, first compound 3.16 µM",116%
same,"viability, T/C","second compound 0.00316 µM, first compound 10 µM",59.6%
same,"viability, T/C",[11],109%
same,"viability, T/C",[12],91.8%
same,"viability, T/C",[13],104%
same,"viability, T/C",[14],109%
same,"viability, T/C","second compound 0.01 µM, first compound 3.16 µM",124%
same,"viability, T/C","second compound 0.01 µM, first compound 10 µM",58.1%
same,"viability, T/C",[15],99.5%
same,"viability, T/C",[16],96%
same,"viability, T/C",[17],107%
same,"viability, T/C",[18],110%
same,"viability, T/C","second compound 0.0316 µM, first compound 3.16 µM",122%
same,"viability, T/C","second compound 0.0316 µM, first compound 10 µM",57.6%
same,"viability, T/C",[19],94.4%
same,"viability, T/C",[20],95.3%
same,"viability, T/C",[21],107%
same,"viability, T/C",[22],112%
same,"viability, T/C","second compound 0.1 µM, first compound 3.16 µM",126%
same,"viability, T/C","second compound 0.1 µM, first compound 10 µM",56.4%
same,"viability, T/C",[23],99.6%
same,"viability, T/C",[24],102%
same,"viability, T/C",[25],97.5%
same,"viability, T/C",[26],120%
same,"viability, T/C","second compound 0.316 µM, first compound 3.16 µM",124%
same,"viability, T/C","second compound 0.316 µM, first compound 10 µM",60.3%
same,"viability, T/C",[27],97.5%
same,"viability, T/C",[28],94.5%
same,"viability, T/C",[29],101%
same,"viability, T/C",[30],118%
same,"viability, T/C","second compound 1 µM, first compound 3.16 µM",120%
same,"viability, T/C","second compound 1 µM, first compound 10 µM",43.1%
CC(C)n1nc(-c2ccc3oc(N)nc3c2)c2c(N)ncnc21,"viability, T/C",compound 0.000316 µM,101% [middle of 4 runs]
same,"viability, T/C",compound 0.001 µM,99.3% [middle of 4 runs]
same,"viability, T/C",compound 0.00316 µM,91.7% [middle of 4 runs]
same,"viability, T/C",compound 0.01 µM,81.6% [middle of 4 runs]
same,"viability, T/C",compound 0.0316 µM,73.5% [middle of 4 runs]
same,"viability, T/C",compound 0.1 µM,61.9% [middle of 4 runs]
same,IC50,curve of compound,> 100 nM and 59.9 nM
